Experimental data: the NIST ThermoML archive (doi:10.1021/je0503204)

Settings: Liquid; for speed of sound: Pulse-echo method

CCCCCCCl [1-chlorohexane]
Settings | mass density [kg/m3] | speed of sound [m/s]
293.15 K, 100 kPa | 878.5 | 1219.1
293.15 K, 5000 kPa | 884.2 | 1240.5
293.15 K, 9910 kPa | 887 | 1264.5
293.15 K, 19720 kPa | 894.7 | 1310
293.15 K, 29530 kPa | 901.8 | 1352.6
293.15 K, 39340 kPa | 908.4 | 1392.6
293.15 K, 49150 kPa | 914.6 | 1430.1
293.15 K, 58960 kPa | 920.4 | 1465.7
293.15 K, 68770 kPa | 925.9 | 1499.3
293.15 K, 78580 kPa | 931.1 | 1531.5
293.15 K, 88390 kPa | 936 | 1562.3
293.15 K, 98200 kPa | 940.7 | 1591.9
293.15 K, 108000 kPa | 945.1 | 1620.6
293.15 K, 117800 kPa | 949.4 | 1648.2
293.15 K, 127600 kPa | 953.4 | 1675.2
293.15 K, 137400 kPa | 957.3 | 1701.5
293.15 K, 147200 kPa | 961.1 | 1727.1
293.15 K, 157100 kPa | 964.7 | 1752.2
293.15 K, 166900 kPa | 968.1 | 1776.7
293.15 K, 176700 kPa | 971.5 | 1800.6
293.15 K, 186500 kPa | 974.7 | 1824
293.15 K, 196300 kPa | 977.9 | 1846.5
313.15 K, 100 kPa | 859.4 | 1140.7
313.15 K, 5000 kPa | 865 | 1166.4
313.15 K, 9910 kPa | 869.8 | 1191.8
313.15 K, 19720 kPa | 878.3 | 1240.1
313.15 K, 29530 kPa | 886.2 | 1285.3
313.15 K, 39340 kPa | 893.4 | 1327.6
313.15 K, 49150 kPa | 900.1 | 1367.4
313.15 K, 58960 kPa | 906.4 | 1405
313.15 K, 68770 kPa | 912.3 | 1440.6
313.15 K, 78580 kPa | 917.9 | 1474.6
313.15 K, 88390 kPa | 923.1 | 1507
313.15 K, 98200 kPa | 928.1 | 1538
313.15 K, 108000 kPa | 932.8 | 1567.9
313.15 K, 117800 kPa | 937.3 | 1596.7
313.15 K, 127600 kPa | 941.6 | 1624.5
313.15 K, 137400 kPa | 945.7 | 1651.4
313.15 K, 147200 kPa | 949.7 | 1677.5
313.15 K, 157100 kPa | 953.5 | 1702.6
313.15 K, 166900 kPa | 957.1 | 1726.9
313.15 K, 176700 kPa | 960.6 | 1750.3
313.15 K, 186500 kPa | 964 | 1772.6
313.15 K, 196300 kPa | 967.2 | 1793.6
333.15 K, 100 kPa | 840.3 | 1068.8
333.15 K, 5000 kPa | 847.1 | 1097.1
333.15 K, 9910 kPa | 851.9 | 1124.4
333.15 K, 19720 kPa | 861.5 | 1176
333.15 K, 29530 kPa | 870.3 | 1224
333.15 K, 39340 kPa | 878.3 | 1268.8
333.15 K, 49150 kPa | 885.7 | 1310.8
333.15 K, 58960 kPa | 892.6 | 1350.4
333.15 K, 68770 kPa | 899 | 1387.7
333.15 K, 78580 kPa | 905 | 1423.2
333.15 K, 88390 kPa | 910.7 | 1457
333.15 K, 98200 kPa | 916 | 1489.4
333.15 K, 108000 kPa | 921.1 | 1520.4
333.15 K, 117800 kPa | 925.9 | 1550.3
333.15 K, 127600 kPa | 930.4 | 1579.1
333.15 K, 137400 kPa | 934.8 | 1607
333.15 K, 147200 kPa | 939 | 1633.9
333.15 K, 157100 kPa | 943 | 1659.9
333.15 K, 166900 kPa | 946.8 | 1684.9
333.15 K, 176700 kPa | 950.5 | 1708.9
333.15 K, 186500 kPa | 954 | 1731.8
333.15 K, 196300 kPa | 957.4 | 1753.5
353.15 K, 100 kPa | 821.3 | 995
353.15 K, 5000 kPa | 828.1 | 1026.2
353.15 K, 9910 kPa | 833.7 | 1055.4
353.15 K, 19720 kPa | 844.5 | 1110.7
353.15 K, 29530 kPa | 854.3 | 1162
353.15 K, 39340 kPa | 863.1 | 1209.8
353.15 K, 49150 kPa | 871.2 | 1254.5
353.15 K, 58960 kPa | 878.7 | 1296.3
353.15 K, 68770 kPa | 885.6 | 1335.8
353.15 K, 78580 kPa | 892.1 | 1373
353.15 K, 88390 kPa | 898.2 | 1408.3
353.15 K, 98200 kPa | 903.8 | 1441.9
353.15 K, 108000 kPa | 909.2 | 1474
353.15 K, 117800 kPa | 914.3 | 1504.7
353.15 K, 127600 kPa | 919.1 | 1534.3
353.15 K, 137400 kPa | 923.7 | 1562.7
353.15 K, 147200 kPa | 928.1 | 1590.1
353.15 K, 157100 kPa | 932.3 | 1616.4
353.15 K, 166900 kPa | 936.3 | 1641.8
353.15 K, 176700 kPa | 940.1 | 1666.1
353.15 K, 186500 kPa | 943.8 | 1689.4
353.15 K, 196300 kPa | 947.4 | 1711.4
373.15 K, 100 kPa | 802.2 | 922.9
373.15 K, 5000 kPa | 809.3 | 957
373.15 K, 9910 kPa | 815.2 | 989.6
373.15 K, 19720 kPa | 827.4 | 1050.4
373.15 K, 29530 kPa | 838.3 | 1105.8
373.15 K, 39340 kPa | 848 | 1156.5
373.15 K, 49150 kPa | 856.9 | 1203.2
373.15 K, 58960 kPa | 865 | 1246.3
373.15 K, 68770 kPa | 872.5 | 1286.9
373.15 K, 78580 kPa | 879.4 | 1324.8
373.15 K, 88390 kPa | 885.9 | 1360.8
373.15 K, 98200 kPa | 891.9 | 1395.1
373.15 K, 108000 kPa | 897.6 | 1427.9
373.15 K, 117800 kPa | 903 | 1459.6
373.15 K, 127600 kPa | 908.1 | 1490.1
373.15 K, 137400 kPa | 912.9 | 1519.6
373.15 K, 147200 kPa | 917.5 | 1548.1
373.15 K, 157100 kPa | 921.9 | 1575.5
373.15 K, 166900 kPa | 926.1 | 1601.7
373.15 K, 176700 kPa | 930.1 | 1626.5
373.15 K, 186500 kPa | 934 | 1649.5
373.15 K, 196300 kPa | 937.7 | 1670.6
393.15 K, 100 kPa | 780.7 | 853.3
393.15 K, 5000 kPa | 789.2 | 893.8
393.15 K, 9910 kPa | 796.7 | 928.6
393.15 K, 19720 kPa | 810.5 | 993.2
393.15 K, 29530 kPa | 822.6 | 1051.8
393.15 K, 39340 kPa | 833.3 | 1105.2
393.15 K, 49150 kPa | 843 | 1154.2
393.15 K, 58960 kPa | 851.8 | 1199.4
393.15 K, 68770 kPa | 859.8 | 1241.4
393.15 K, 78580 kPa | 867.2 | 1280.8
393.15 K, 88390 kPa | 874.1 | 1318
393.15 K, 98200 kPa | 880.6 | 1353.3
393.15 K, 108000 kPa | 886.6 | 1387.2
393.15 K, 117800 kPa | 892.3 | 1419.7
393.15 K, 127600 kPa | 897.6 | 1451.2
393.15 K, 137400 kPa | 902.7 | 1481.6
393.15 K, 147200 kPa | 907.5 | 1511.1
393.15 K, 157100 kPa | 912.1 | 1539.5
393.15 K, 166900 kPa | 916.4 | 1566.9
393.15 K, 176700 kPa | 920.6 | 1592.8
393.15 K, 186500 kPa | 924.6 | 1617.2
393.15 K, 196300 kPa | 928.4 | 1639.7
413.15 K, 100 kPa | 759.1 | 784
413.15 K, 5000 kPa | 769.6 | 829.4
413.15 K, 9910 kPa | 777.6 | 867.7
413.15 K, 19720 kPa | 793.3 | 938.1
413.15 K, 29530 kPa | 806.8 | 1001.1
413.15 K, 39340 kPa | 818.6 | 1057.7
413.15 K, 49150 kPa | 829.2 | 1109
413.15 K, 58960 kPa | 838.7 | 1155.8
413.15 K, 68770 kPa | 847.4 | 1198.9
413.15 K, 78580 kPa | 855.3 | 1239.1
413.15 K, 88390 kPa | 862.7 | 1276.9
413.15 K, 98200 kPa | 869.5 | 1312.8
413.15 K, 108000 kPa | 875.8 | 1347.4
413.15 K, 117800 kPa | 881.8 | 1380.6
413.15 K, 127600 kPa | 887.4 | 1413
413.15 K, 137400 kPa | 892.7 | 1444.5
413.15 K, 147200 kPa | 897.8 | 1475.2
413.15 K, 157100 kPa | 902.5 | 1504.9
413.15 K, 166900 kPa | 907.1 | 1533.7
413.15 K, 176700 kPa | 911.4 | 1560.9
413.15 K, 186500 kPa | 915.6 | 1586.4
413.15 K, 196300 kPa | 919.5 | 1609.7
